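Cultured in 96-well plates, cells were exposed to test compound for 48 hours across five concentrations. The concentration for 50% growth inhibition is given as GI50. At the TGI there is no net growth.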
Columns and labels:
Experiment in all cases: NCI anticancer screen, dose series, 48 h
[1] = system: MDA-MB-435
[2] = system: NCI/ADR-RES ovarian
[3] = system: TK-10 renal
[4] = system: U251 CNS
[5] = system: HOP-62 NSCLC
[6] = system: SNB-19 CNS
[7] = system: NCI-H23 lung
[8] = system: HS 578T breast
[9] = system: HCC-2998 colon
[10] = system: NCI-H226 lung
[11] = system: RPMI-8226 leukemia
[12] = system: UACC-62 melanoma
[13] = system: COLO 205 colon
[14] = system: SK-MEL-2 melanoma
[15] = system: MDA-MB-231 breast
[16] = system: M14 melanoma
[17] = system: A549 NSCLC
[18] = system: SNB-75 CNS
[19] = system: OVCAR-5 ovarian
[20] = system: KM12 colon
[21] = system: SR leukemia
[22] = system: HCT-116 colon
[23] = system: T-47D breast
[24] = system: SW-620 colon
[25] = system: SK-MEL-5 melanoma
[26] = system: RXF 393 renal
[27] = system: SN12C renal
[28] = system: CAKI-1 renal

## COc1ccc(C2CC(c3ccc(OC)c(OC)c3)=NN2C(=O)c2cc(OC)c(OC)c(OC)c2)cc1 (stereo not given)
[1]
  GI50: 0.409 µM
  TGI: 2.02 µM
[2]
  GI50: 0.95 µM
  TGI: 6.02 µM
[3]
  GI50: 5.26 µM
  TGI: > 100 µM
[4]
  GI50: 2.53 µM
  TGI: > 100 µM
[5]
  GI50: 1.78 µM
  TGI: > 100 µM
[6]
  GI50: 4.67 µM
  TGI: > 100 µM
[7]
  GI50: 3.46 µM
  TGI: > 100 µM
[8]
  GI50: 2.07 µM
  TGI: > 100 µM
[9]
  GI50: 1.85 µM
  TGI: 4.77 µM
[10]
  GI50: 3.06 µM
  TGI: > 100 µM
[11]
  GI50: 4.27 µM
  TGI: > 100 µM
[12]
  GI50: 1.39 µM
  TGI: > 100 µM
[13]
  GI50: 2.81 µM
  TGI: > 28 µM
[14]
  GI50: 3.87 µM
  TGI: > 100 µM
[15]
  GI50: 3.09 µM
  TGI: > 100 µM
[16]
  GI50: 1.95 µM
  TGI: > 100 µM
[17]
  GI50: 2.88 µM
  TGI: > 100 µM
[18]
  GI50: 2.08 µM
  TGI: > 100 µM
[19]
  GI50: 9.26 µM
  TGI: > 100 µM
[20]
  GI50: 2.31 µM
  TGI: > 63.1 µM
[21]
  GI50: 2.07 µM
  TGI: > 100 µM
[22]
  GI50: 2.23 µM
  TGI: > 100 µM
[23]
  GI50: 2.3 µM
  TGI: > 100 µM
[24]
  GI50: 3.7 µM
  TGI: > 100 µM
[25]
  GI50: 0.558 µM
  TGI: 4.83 µM
[26]
  GI50: 0.344 µM
  TGI: 3.05 µM
[27]
  GI50: 5.71 µM
  TGI: > 100 µM
[28]
  GI50: 0.473 µM
